In ChEMBL document CHEMBL5729116, “hTRPV1 chemical agents” (2022):

Target: Transient receptor potential cation channel subfamily V member 1 (Homo sapiens, UniProt Q8NER1)
Assay: RTX Competition Binding Assay.: Binding studies with [3H]RTX were carried out as follows. The binding assay mixtures were prepared in 1.5 ml centrifuge tubes and consisted of a fixed concentration (approximately 2 nM) of [3H]RTX (37 Ci/mmol specific activity, PerkinElmer Life Sciences), various concentrations of competing ligands, and […] of membranes from induced CHO-hTRPV1 expressing cells (approximately 1-3×10^6 cells) in Dulbecco's phosphate buffered saline (DPBS, with Ca2+ & Mg2+) for a total volume of 350 μl. The assay mix contained bovine serum albumin at a final concentration of 0.25 mg/ml (Cohn fraction V; Sigma-Aldrich, St. Louis, Mo.). In each set of experiments, nonspecific binding were determined in the presence of 200 nM non-radioactive RTX. The binding reaction was initiated by placing the assay mixture in a 37° C. shaking water bath for 60 minutes (−30 rpm). The assay mixture was then chilled on ice for 2-3 min before adding 100 μl of α1-acid glycoprotein (2 mg/ml; Sigma-Aldrich) and mixed thoroughly. The tubes were kept on ice for an additional 10 min. The bound and free ligands were then separated by centrifugation (12,200 rpm for 15 minutes) in a Beckman Coulter centrifuge Allegra 21R. 200 μl of supernatant was collected for determination of free ligand. The remainder was removed by aspiration.

Sequence of Transient receptor potential cation channel subfamily V member 1 (Q8NER1 whole entry): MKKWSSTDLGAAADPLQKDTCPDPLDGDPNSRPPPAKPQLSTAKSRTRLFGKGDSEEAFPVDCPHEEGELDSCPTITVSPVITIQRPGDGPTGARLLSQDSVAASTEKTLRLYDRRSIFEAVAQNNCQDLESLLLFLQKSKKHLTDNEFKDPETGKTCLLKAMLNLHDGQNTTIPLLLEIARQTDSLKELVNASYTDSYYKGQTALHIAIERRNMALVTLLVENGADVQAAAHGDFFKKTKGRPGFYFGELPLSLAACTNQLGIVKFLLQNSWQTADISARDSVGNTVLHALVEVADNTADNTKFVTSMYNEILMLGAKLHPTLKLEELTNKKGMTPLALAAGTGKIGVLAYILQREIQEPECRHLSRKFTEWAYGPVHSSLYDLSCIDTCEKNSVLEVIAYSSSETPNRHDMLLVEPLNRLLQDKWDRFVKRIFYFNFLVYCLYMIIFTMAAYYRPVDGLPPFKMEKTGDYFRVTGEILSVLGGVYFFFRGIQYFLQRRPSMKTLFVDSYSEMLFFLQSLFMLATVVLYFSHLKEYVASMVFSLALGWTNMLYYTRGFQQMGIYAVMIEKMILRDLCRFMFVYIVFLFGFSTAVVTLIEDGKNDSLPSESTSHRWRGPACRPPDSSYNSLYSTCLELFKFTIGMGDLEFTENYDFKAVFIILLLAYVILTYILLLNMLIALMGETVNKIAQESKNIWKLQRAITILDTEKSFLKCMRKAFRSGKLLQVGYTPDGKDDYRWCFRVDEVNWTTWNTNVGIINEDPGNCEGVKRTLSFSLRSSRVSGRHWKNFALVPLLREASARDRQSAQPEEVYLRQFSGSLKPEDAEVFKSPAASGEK

**Q.** Which Ki does the source give for `O=C(Nc1cccc(C(F)(F)F)c1)Nc1ccc([N+](=O)[O-])cc1Cl` here?
**A.** 2.57 µM
